Inhibition and solubility data for 2 compounds are collected here from ChEMBL document CHEMBL4387741, “Optimization of novel reversible Bruton's tyrosine kinase inhibitors identified using Tethering-fragment-based screens” (Bioorg Med Chem, 2019).

Bounds are passed on as bounds.

The subject of data set [1] is Tyrosine-protein kinase ABL1 (Homo sapiens), P00519 [Q252H]. Kind of data set: Inhibition of human non-phosphorylated ABL1 Q252H mutant (S229 to K512 residues) expressed in mammalian expression system at 1 uM by Kinomescan method relative to control.
The target of data set [2] is Protein-tyrosine kinase 6 (Homo sapiens) (UniProt Q13882). Kind of data set: Inhibition of wild-type human partial length BRK (L166 to T451 residues) expressed in bacterial expression system at 1 uM by Kinomescan method relative to control.
The target of data set [3] is Ribosomal protein S6 kinase alpha-6 (Homo sapiens) (UniProt Q9UK32). Kind of data set: Inhibition of wild-type human partial length C-terminal RSK4 kinase domain 2 (I401 to Y711 residues) expressed in bacterial expression system at 1 uM by Kinomescan method relative to control.
Data set [4] has as its target Leucine-rich repeat serine/threonine-protein kinase 2 (Homo sapiens) (UniProt Q5S007). As to the kind of experiment: Inhibition of wild-type human partial length LRRK2 (H970 to E2527 residues) expressed in mammalian expression system at 1 uM by Kinomescan method relative to control.
Data set [5] addresses Phosphatidylinositol 4-phosphate 5-kinase type-1 alpha (Homo sapiens) (UniProt Q99755). Kind of data set: Inhibition of wild-type human full length PIP5K1A (M1 to H562 residues) expressed in bacterial expression system at 1 uM by Kinomescan method relative to control.
In data set [6] the test system is Tyrosine-protein kinase ABL1 (Homo sapiens), P00519 [Y253F]. Kind of data set: Inhibition of human phosphorylated ABL1 Y253F mutant (S229 to K512 residues) expressed in mammalian expression system at 1 uM by Kinomescan method relative to control.
The target of data set [7] is Serine/threonine-protein kinase pim-3 (Homo sapiens) (UniProt Q86V86). As to the kind of experiment: Inhibition of wild-type human partial length PIM3 (G16 to A317 residues) expressed in bacterial expression system at 1 uM by Kinomescan method relative to control.
The target of data set [8] is RAC-gamma serine/threonine-protein kinase (Homo sapiens) (UniProt Q9Y243). As to the kind of experiment: Inhibition of wild-type human partial length AKT3 expressed in bacterial expression system at 1 uM by Kinomescan method relative to control.
The target in data set [9] is Proto-oncogene tyrosine-protein kinase receptor Ret (Homo sapiens) (UniProt P07949). Kind of data set: Inhibition of wild-type human partial length RET (E713 to D1014 residues) expressed in bacterial expression system at 1 uM by Kinomescan method relative to control.
Data set [10] concerns the target Ribosomal protein S6 kinase alpha-3 (Homo sapiens) (UniProt P51812). As to the kind of experiment: Inhibition of wild-type human partial length C-terminal RSK2 kinase domain 2 (V402 to S715 residues) expressed in mammalian expression system at 1 uM by Kinomescan method relative to control.
Data set [11] concerns the target Dual specificity protein kinase CLK1 (Homo sapiens) (UniProt P49759). Kind of data set: Inhibition of wild-type human full length CLK1 (M1 to I484 residues) expressed in bacterial expression system at 1 uM by Kinomescan method relative to control.
Data set [12] concerns the target Ephrin type-B receptor 3 (Homo sapiens) (UniProt P54753). Kind of data set: Inhibition of wild-type human partial length EPHB3 (Q599 to T928 residues) expressed in bacterial expression system at 1 uM by Kinomescan method relative to control.
The target of data set [13] is Mitogen-activated protein kinase 4 (Homo sapiens) (UniProt P31152). Kind of data set: Inhibition of wild-type human partial length ERK4 (M1 to L365 residues) expressed in bacterial expression system at 1 uM by Kinomescan method relative to control.
Data set [14] addresses Cyclin-dependent kinase 17 (Homo sapiens) (UniProt Q00537). As to the kind of experiment: Inhibition of wild-type human full length PCTK2 (M1 to F523 residues) expressed in bacterial expression system at 1 uM by Kinomescan method relative to control.
The target in data set [15] is Serine/threonine-protein kinase PRP4 homolog (Homo sapiens) (UniProt Q13523). Kind of data set: Inhibition of wild-type human partial length PRP4 (D657 to I1007 residues) expressed in bacterial expression system at 10 uM by Kinomescan method relative to control.
The target in data set [16] is 5'-AMP-activated protein kinase catalytic subunit alpha-2 (Homo sapiens) (UniProt P54646). Kind of data set: Inhibition of wild-type human partial length AMPK alpha2 (M1 to E306 residues) expressed in bacterial expression system at 10 uM by Kinomescan method relative to control.
Data set [17] deals with Calcium/calmodulin-dependent protein kinase type II subunit gamma (Homo sapiens) (UniProt Q13555). Kind of data set: Inhibition of wild-type human partial length CAMK2G (R9 to A303 residues) expressed in bacterial expression system at 10 uM by Kinomescan method relative to control.
The target in data set [18] is Calcium/calmodulin-dependent protein kinase type II subunit delta (Homo sapiens) (UniProt Q13557). As to the kind of experiment: Inhibition of wild-type human partial length CAMK2D (M1 to E329 residues) expressed in bacterial expression system at 10 uM by Kinomescan method relative to control.
The target of data set [19] is Serine/threonine-protein kinase 32B (Homo sapiens) (UniProt Q9NY57). Kind of data set: Inhibition of wild-type human full length YANK2 (M1 to S414 residues) expressed in bacterial expression system at 10 uM by Kinomescan method relative to control.
Data set [20] addresses Myosin light chain kinase family member 4 (Homo sapiens) (UniProt Q86YV6). Kind of data set: Inhibition of wild-type human partial length MYLK4 (V79 to S380 residues) expressed in bacterial expression system at 10 uM by Kinomescan method relative to control.
Data set [21] relates to Epidermal growth factor receptor (Homo sapiens), P00533 [UNDEFINED MUTATION]. As to the kind of experiment: Inhibition of human partial length EGFR E746-A750del mutant expressed in bacterial expression system at 10 uM by Kinomescan method relative to control.
For data set [22], the target named is Leucine-rich repeat serine/threonine-protein kinase 2 (Homo sapiens) (UniProt Q5S007). Kind of data set: Inhibition of wild-type human partial length LRRK2 (H970 to E2527 residues) expressed in mammalian expression system at 10 uM by Kinomescan method relative to control.
Data set [23] deals with Receptor-interacting serine/threonine-protein kinase 2 (Homo sapiens) (UniProt O43353). As to the kind of experiment: Inhibition of wild-type human partial length RIPK2 (M1 to K310 residues) expressed in bacterial expression system at 10 uM by Kinomescan method relative to control.
The target in data set [24] is Serine/threonine-protein kinase N2 (Homo sapiens) (UniProt Q16513). As to the kind of experiment: Inhibition of wild-type human partial length PKN2 (E634 to C984 residues) expressed in bacterial expression system at 10 uM by Kinomescan method relative to control.
Data set [25] has as its target Serine/threonine-protein kinase MARK2 (Homo sapiens) (UniProt Q7KZI7). Kind of data set: Inhibition of wild-type human partial length MARK2 (M1 to R450 residues) expressed in bacterial expression system at 10 uM by Kinomescan method relative to control.
The target in data set [26] is Bone morphogenetic protein receptor type-1B (Homo sapiens) (UniProt O00238). Kind of data set: Inhibition of wild-type human partial length BMPR1B (D178 to L502 residues) expressed in mammalian expression system at 10 uM by Kinomescan method relative to control.
Data set [27] can be described thus: Solubility of the compound at pH 6.8. The following applies: buffer. It is filed as physicochemical.

Sequence of Leucine-rich repeat serine/threonine-protein kinase 2 (Homo sapiens) (Q5S007 whole entry, the tested form may be a part): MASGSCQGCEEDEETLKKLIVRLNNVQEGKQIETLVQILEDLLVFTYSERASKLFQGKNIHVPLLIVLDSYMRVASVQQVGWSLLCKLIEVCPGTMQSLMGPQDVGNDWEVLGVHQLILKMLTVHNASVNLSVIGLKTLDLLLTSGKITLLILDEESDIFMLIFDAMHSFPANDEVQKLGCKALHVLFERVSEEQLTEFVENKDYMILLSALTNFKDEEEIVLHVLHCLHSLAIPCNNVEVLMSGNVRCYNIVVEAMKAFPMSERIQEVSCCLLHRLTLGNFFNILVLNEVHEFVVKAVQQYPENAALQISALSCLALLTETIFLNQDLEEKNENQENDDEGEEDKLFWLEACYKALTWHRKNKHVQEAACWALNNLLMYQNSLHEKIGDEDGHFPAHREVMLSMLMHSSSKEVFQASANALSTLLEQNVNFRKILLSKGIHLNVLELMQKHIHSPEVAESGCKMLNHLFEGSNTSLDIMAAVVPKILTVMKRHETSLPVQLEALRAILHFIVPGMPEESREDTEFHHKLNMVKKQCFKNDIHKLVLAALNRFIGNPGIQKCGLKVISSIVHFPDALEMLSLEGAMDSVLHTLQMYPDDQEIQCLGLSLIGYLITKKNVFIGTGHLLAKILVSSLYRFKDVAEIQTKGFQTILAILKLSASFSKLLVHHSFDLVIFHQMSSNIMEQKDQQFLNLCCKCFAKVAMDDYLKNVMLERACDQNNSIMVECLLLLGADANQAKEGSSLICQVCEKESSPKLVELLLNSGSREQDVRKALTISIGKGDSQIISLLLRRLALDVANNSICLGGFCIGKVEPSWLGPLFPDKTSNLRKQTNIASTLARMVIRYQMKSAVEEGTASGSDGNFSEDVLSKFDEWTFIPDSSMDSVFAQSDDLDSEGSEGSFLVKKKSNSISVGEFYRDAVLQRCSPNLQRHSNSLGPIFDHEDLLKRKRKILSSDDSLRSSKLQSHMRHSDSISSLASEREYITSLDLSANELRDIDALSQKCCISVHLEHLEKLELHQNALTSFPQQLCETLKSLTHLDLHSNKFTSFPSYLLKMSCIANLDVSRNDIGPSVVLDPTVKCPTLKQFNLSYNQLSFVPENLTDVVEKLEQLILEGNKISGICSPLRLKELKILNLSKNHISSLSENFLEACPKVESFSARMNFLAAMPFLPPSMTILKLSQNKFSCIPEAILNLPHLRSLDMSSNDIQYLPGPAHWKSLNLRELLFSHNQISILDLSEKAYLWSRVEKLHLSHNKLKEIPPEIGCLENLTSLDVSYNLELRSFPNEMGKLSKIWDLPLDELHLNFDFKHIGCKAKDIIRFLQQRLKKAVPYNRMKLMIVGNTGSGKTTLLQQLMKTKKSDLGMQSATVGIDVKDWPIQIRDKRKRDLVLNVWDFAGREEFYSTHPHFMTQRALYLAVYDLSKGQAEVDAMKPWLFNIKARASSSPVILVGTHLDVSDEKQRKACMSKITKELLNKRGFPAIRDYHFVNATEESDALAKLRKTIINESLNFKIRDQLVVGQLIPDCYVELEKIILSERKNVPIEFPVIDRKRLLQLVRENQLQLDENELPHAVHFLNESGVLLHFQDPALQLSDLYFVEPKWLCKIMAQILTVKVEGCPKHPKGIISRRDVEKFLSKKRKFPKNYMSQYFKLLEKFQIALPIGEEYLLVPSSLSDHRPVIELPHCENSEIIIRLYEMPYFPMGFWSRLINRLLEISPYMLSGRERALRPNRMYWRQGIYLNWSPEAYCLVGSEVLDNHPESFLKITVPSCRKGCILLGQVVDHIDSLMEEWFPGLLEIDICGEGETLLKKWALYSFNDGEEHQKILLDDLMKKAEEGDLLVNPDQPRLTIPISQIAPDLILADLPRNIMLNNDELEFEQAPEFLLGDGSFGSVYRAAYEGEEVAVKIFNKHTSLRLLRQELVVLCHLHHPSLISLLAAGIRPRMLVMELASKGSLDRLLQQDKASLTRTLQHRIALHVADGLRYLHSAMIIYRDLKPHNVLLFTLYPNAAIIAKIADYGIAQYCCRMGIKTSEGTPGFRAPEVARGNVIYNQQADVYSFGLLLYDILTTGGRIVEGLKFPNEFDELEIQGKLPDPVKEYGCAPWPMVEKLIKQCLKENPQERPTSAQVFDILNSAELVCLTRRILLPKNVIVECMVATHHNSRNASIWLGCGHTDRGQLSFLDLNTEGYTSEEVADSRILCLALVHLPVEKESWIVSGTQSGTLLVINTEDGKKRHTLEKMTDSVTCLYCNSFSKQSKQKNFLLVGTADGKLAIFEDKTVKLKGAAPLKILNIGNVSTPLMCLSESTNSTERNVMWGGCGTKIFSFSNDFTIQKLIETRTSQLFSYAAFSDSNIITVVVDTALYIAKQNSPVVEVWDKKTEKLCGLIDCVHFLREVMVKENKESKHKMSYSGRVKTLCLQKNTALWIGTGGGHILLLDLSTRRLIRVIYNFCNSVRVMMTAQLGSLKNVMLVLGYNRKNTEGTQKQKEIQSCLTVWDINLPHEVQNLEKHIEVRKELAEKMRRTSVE
Sequence of Epidermal growth factor receptor (Homo sapiens), P00533 [UNDEFINED MUTATION] (P00533 whole entry, looked up, stated change not applied, the tested form may be a part): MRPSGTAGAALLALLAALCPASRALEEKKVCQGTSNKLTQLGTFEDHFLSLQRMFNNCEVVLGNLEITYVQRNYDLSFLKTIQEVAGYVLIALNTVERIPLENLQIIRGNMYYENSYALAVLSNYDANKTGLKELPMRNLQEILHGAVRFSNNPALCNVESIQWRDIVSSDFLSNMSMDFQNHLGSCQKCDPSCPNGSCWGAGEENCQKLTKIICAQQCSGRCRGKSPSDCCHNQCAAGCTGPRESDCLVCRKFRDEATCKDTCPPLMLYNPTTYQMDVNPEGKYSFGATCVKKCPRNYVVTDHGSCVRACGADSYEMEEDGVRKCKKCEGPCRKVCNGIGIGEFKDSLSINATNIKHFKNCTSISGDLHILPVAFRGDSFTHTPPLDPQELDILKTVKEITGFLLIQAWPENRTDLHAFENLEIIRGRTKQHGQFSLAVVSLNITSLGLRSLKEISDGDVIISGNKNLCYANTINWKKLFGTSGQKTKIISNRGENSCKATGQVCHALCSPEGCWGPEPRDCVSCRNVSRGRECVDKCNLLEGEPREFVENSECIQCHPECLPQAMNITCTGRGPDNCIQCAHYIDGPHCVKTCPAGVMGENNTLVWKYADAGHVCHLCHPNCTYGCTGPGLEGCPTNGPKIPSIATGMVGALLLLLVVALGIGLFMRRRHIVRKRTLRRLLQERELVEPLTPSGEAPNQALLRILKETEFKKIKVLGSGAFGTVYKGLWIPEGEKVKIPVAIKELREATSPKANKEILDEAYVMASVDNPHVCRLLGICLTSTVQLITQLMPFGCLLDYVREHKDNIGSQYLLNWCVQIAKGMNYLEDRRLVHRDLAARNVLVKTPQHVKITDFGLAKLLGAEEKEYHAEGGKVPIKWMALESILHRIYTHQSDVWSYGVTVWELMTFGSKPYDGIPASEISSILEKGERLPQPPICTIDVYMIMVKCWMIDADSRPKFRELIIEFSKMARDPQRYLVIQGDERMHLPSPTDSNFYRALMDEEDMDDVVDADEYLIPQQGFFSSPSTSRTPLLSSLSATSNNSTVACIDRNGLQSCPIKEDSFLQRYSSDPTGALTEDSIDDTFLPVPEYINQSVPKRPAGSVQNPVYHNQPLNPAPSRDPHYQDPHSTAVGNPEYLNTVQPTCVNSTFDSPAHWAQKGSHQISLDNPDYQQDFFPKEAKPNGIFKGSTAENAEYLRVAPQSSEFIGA
Sequence of Serine/threonine-protein kinase 32B (Homo sapiens) (Q9NY57 whole entry, the tested form may be a part): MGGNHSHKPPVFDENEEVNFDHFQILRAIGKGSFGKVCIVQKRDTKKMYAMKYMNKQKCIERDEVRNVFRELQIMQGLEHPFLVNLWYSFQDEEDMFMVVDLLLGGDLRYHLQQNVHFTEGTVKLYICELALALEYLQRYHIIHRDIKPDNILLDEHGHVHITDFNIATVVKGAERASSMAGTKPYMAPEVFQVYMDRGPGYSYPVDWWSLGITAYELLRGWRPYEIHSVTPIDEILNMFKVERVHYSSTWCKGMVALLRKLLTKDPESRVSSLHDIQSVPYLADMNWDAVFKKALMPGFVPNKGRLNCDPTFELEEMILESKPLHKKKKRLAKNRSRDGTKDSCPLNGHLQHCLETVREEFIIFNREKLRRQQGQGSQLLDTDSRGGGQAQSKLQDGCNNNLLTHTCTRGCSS
Sequence of Bone morphogenetic protein receptor type-1B (Homo sapiens) (O00238 whole entry, the tested form may be a part): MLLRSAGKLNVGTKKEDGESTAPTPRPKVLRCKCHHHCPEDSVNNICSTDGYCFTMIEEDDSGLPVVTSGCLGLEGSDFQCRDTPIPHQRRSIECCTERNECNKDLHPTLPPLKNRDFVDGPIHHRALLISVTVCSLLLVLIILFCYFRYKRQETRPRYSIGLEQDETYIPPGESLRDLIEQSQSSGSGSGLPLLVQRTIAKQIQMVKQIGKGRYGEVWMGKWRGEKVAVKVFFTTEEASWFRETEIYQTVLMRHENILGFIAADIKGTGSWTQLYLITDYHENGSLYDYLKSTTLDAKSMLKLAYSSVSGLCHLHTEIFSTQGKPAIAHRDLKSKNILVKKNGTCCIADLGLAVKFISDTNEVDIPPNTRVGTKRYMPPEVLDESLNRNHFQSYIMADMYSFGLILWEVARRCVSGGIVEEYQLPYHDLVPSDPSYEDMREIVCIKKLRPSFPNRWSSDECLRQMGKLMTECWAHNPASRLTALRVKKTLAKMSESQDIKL
Sequence of Protein-tyrosine kinase 6 (Homo sapiens) (Q13882 whole entry, looked up, the tested form may be a part): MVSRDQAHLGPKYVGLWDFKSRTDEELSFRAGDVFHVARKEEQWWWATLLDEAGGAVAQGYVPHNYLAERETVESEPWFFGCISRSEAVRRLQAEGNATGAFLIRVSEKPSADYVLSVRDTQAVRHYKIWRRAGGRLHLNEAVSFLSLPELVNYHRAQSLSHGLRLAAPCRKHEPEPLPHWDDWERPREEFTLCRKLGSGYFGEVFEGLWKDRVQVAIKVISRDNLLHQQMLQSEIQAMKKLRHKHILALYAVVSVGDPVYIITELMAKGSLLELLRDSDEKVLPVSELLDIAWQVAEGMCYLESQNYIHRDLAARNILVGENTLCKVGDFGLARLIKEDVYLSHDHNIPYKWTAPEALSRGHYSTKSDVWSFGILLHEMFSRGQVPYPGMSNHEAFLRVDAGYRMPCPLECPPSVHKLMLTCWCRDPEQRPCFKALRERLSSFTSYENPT

`O=C(Nc1cccc([C@@H]2CN(c3ncnc4[nH]ccc34)CCN2CCO)c1)Nc1c(F)cccc1N1CCCC1`: the inhibition (in general, the drop in the measured response relative to a control, in per cent) was determined as 55% in [1]; 99% in data set [2]; 88% in data set [3]; 100% in data set [4]; 76% in data set [5]; 100% in data set [6]. Besides, the inhibition turned out to be 89% in data set [7]; 100% in data set [8]; 0.3% in [9]; 100% in data set [10]; 84% in data set [11]; 100% in [12]. The inhibition in [13] and in data set [14] was 100% throughout.

For `O=C(Nc1cccc([C@H]2CCCN(c3ncnc4[nH]ccc34)C2)c1)Nc1ccccc1N1CCCC1`, the inhibition in data set [15] was 17%; in data set [16], 4.7%; in data set [17], 94%; in data set [18], 100%; in [19] it was 100%; in data set [20], 2.6%. Also, the inhibition in data set [21] was determined as 75%; in data set [22], 96%; in data set [23], 100%; in data set [24], 32%; in data set [25] it was 41%; in [26], 46%. Further, the solubility (as a rule, the concentration that dissolves in the medium under given conditions) in data set [27] was less than 1 µg/mL.
